The subject of the experiment is BDF1 mice, M5076 sarcoma s.c., survival/tumor T/C. In words: NCI In Vivo Anticancer Drug Screen. Data for tumor model Sarcoma M5076 (subcutaneous) in B6D2F1 (BDF1) mice. How it is done:
The antitumor activity of compounds was measured in mice bearing transplantable tumors. Survival or tumor size were measured and the results are expressed as the measurement made in the treated group (T) divided by the measurement made in the vehicle treated control group (C). The tumor model used in this assay is Sarcoma M5076 (subcutaneous) in B6D2F1 (BDF1) mice

[1] abbreviates: endpoint: median survival time, dose: 50.0 mg/kg/injection, schedule: Q01DX009 (ip), vehicle: saline with Tween-80, higher = longer survival.
Setting [2] is: endpoint: median survival time, dose: 100.0 mg/kg/injection, schedule: Q01DX009 (ip), vehicle: saline with Tween-80, higher = longer survival.
Setting [3] is: endpoint: median survival time, dose: 200.0 mg/kg/injection, schedule: Q01DX009 (ip), vehicle: saline with Tween-80, higher = longer survival.

Several values for one entry are separate records, joined by “and”; a condition that tells them apart may be missing. Equal entries are not always repeated. Inconclusive results are not listed.

As for `Cc1ccc(S(=O)(=O)N/N=C/C(Br)=C(/Br)C(=O)O)cc1`, the T/C (endpoint: median survival time, dose: 0.62 mg/kg/injection, schedule: Q04DX003 (ip), vehicle: saline, higher = longer survival) is 99 % of control; the T/C (endpoint: median survival time, dose: 1.25 mg/kg/injection, schedule: Q04DX003 (ip), vehicle: saline, higher = longer survival) is 101 % of control; the T/C (endpoint: median survival time, dose: 2.5 mg/kg/injection, schedule: Q04DX003 (ip), vehicle: saline, higher = longer survival) is 99 % of control and 96 % of control; the T/C (endpoint: median survival time, dose: 5.0 mg/kg/injection, schedule: Q04DX003 (ip), vehicle: saline, higher = longer survival) was 109 % of control and 92 % of control; the T/C (endpoint: median survival time, dose: 7.5 mg/kg/injection, schedule: Q04DX003 (ip), vehicle: saline, higher = longer survival) is 83 % of control; the T/C (endpoint: median survival time, dose: 11.3 mg/kg/injection, schedule: Q04DX003 (ip), vehicle: saline, higher = longer survival) is 88 % of control.
`CC(=O)O[C@]1(C(C)=O)CC[C@H]2[C@@H]3C[C@H](C)C4=CC(=O)CC[C@]4(C)[C@H]3CC[C@@]21C`: the T/C was 44 % of control (endpoint: mean tumor weight, dose: 100.0 mg/kg/injection, schedule: Q02DX011 (ip), vehicle: Klucel (hydroxypropylcellulose) (HPC), higher = larger tumour); 122 % of control (endpoint: mean tumor weight, dose: 200.0 mg/kg/injection, schedule: Q02DX011 (ip), vehicle: Klucel (hydroxypropylcellulose) (HPC), higher = larger tumour); 74 % of control (endpoint: mean tumor weight, dose: 400.0 mg/kg/injection, schedule: Q02DX011 (ip), vehicle: Klucel (hydroxypropylcellulose) (HPC), higher = larger tumour); 49 % of control (endpoint: median tumor weight (est.), dose: 100.0 mg/kg/injection, schedule: Q02DX011 (ip), vehicle: Klucel (hydroxypropylcellulose) (HPC), higher = larger tumour); 86 % of control (endpoint: median tumor weight (est.), dose: 200.0 mg/kg/injection, schedule: Q02DX011 (ip), vehicle: Klucel (hydroxypropylcellulose) (HPC), higher = larger tumour); 59 % of control (endpoint: median tumor weight (est.), dose: 400.0 mg/kg/injection, schedule: Q02DX011 (ip), vehicle: Klucel (hydroxypropylcellulose) (HPC), higher = larger tumour).
On to `NC(=O)c1cc(N2CC2)c([N+](=O)[O-])cc1[N+](=O)[O-]`, for which the T/C (endpoint: median survival time, dose: 64.0 mg/kg/injection, schedule: Q01DX001 (ip), vehicle: saline, higher = longer survival) was 103 % of control (2×) and 97 % of control; the T/C (endpoint: median survival time, dose: 80.0 mg/kg/injection, schedule: Q01DX001 (ip), vehicle: saline, higher = longer survival) was 95 % of control; the T/C (endpoint: median survival time, dose: 100.0 mg/kg/injection, schedule: Q01DX001 (ip), vehicle: saline, higher = longer survival) is 106 % of control and 110 % of control and 95 % of control.
As to `C[CH2][Ge]1([CH2]C)[CH2]CC2(CCN(CCCN(C)C)C2)C[CH2]1`, the T/C is 110 % of control (endpoint: mean tumor weight, dose: 12.5 mg/kg/injection, schedule: Q02DX011 (ip), vehicle: saline, higher = larger tumour); 79 % of control and 91 % of control (endpoint: mean tumor weight, dose: 25.0 mg/kg/injection, schedule: Q02DX011 (ip), vehicle: saline, higher = larger tumour); 107 % of control and 82 % of control (endpoint: mean tumor weight, dose: 50.0 mg/kg/injection, schedule: Q02DX011 (ip), vehicle: saline, higher = larger tumour); 94 % of control (endpoint: median tumor weight (est.), dose: 12.5 mg/kg/injection, schedule: Q02DX011 (ip), vehicle: saline, higher = larger tumour); 74 % of control (endpoint: median tumor weight (est.), dose: 25.0 mg/kg/injection, schedule: Q02DX011 (ip), vehicle: saline, higher = larger tumour); 74 % of control (endpoint: median tumor weight (est.), dose: 50.0 mg/kg/injection, schedule: Q02DX011 (ip), vehicle: saline, higher = larger tumour).
For `Cc1nc(N)nc(N)c1-c1ccc(Cl)c(Cl)c1`, the T/C (endpoint: median survival time, dose: 1.5 mg/kg/injection, schedule: Q01DX009 (ip), vehicle: normal media, higher = longer survival) was 105 % of control.
On to `CCCNC(=O)ON1C(=O)C2C3C=CC(C3)C2C1=O` (stereo not drawn), for which the T/C (endpoint: median survival time, dose: 3.12 mg/kg/injection, schedule: Q01DX009 (ip), vehicle: saline with Tween-80, higher = longer survival) is 98 % of control; the T/C (endpoint: median survival time, dose: 6.25 mg/kg/injection, schedule: Q01DX009 (ip), vehicle: saline with Tween-80, higher = longer survival) is 95 % of control; the T/C (endpoint: median survival time, dose: 12.5 mg/kg/injection, schedule: Q01DX009 (ip), vehicle: saline with Tween-80, higher = longer survival) is 103 % of control; the T/C (endpoint: median tumor weight (est.), dose: 3.12 mg/kg/injection, schedule: Q01DX009 (ip), vehicle: saline with Tween-80, higher = larger tumour) was 93 % of control; the T/C (endpoint: median tumor weight (est.), dose: 6.25 mg/kg/injection, schedule: Q01DX009 (ip), vehicle: saline with Tween-80, higher = larger tumour) was 107 % of control.
With `Nc1nc(SCC(=O)O)[nH]c(=O)c1N`, the T/C is 93 % of control under setting [1], 105 % of control under setting [2] and 110 % of control under setting [3].
Turning to `COC1=C(C)C(=O)C2=C(C1=O)C(CO)N1C(C#N)C3CC4C(C1C2N1CCOC41)N3C` (stereo not drawn), the T/C (endpoint: median survival time, dose: 0.06 mg/kg/injection, schedule: Q01DX009 (ip), vehicle: saline + alcohol, higher = longer survival) is 100 % of control; the T/C (endpoint: median survival time, dose: 0.13 mg/kg/injection, schedule: Q01DX009 (ip), vehicle: saline + alcohol, higher = longer survival) was 96 % of control; the T/C (endpoint: median survival time, dose: 0.25 mg/kg/injection, schedule: Q01DX009 (ip), vehicle: saline + alcohol, higher = longer survival) is 91 % of control; the T/C (endpoint: median survival time, dose: 0.5 mg/kg/injection, schedule: Q01DX009 (ip), vehicle: saline + alcohol, higher = longer survival) is 106 % of control; the T/C (endpoint: median tumor weight (est.), dose: 0.06 mg/kg/injection, schedule: Q01DX009 (ip), vehicle: saline + alcohol, higher = larger tumour) is 103 % of control; the T/C (endpoint: median tumor weight (est.), dose: 0.13 mg/kg/injection, schedule: Q01DX009 (ip), vehicle: saline + alcohol, higher = larger tumour) was 153 % of control. For the same compound, the T/C (endpoint: median tumor weight (est.), dose: 0.25 mg/kg/injection, schedule: Q01DX009 (ip), vehicle: saline + alcohol, higher = larger tumour) was 95 % of control and the T/C (endpoint: median tumor weight (est.), dose: 0.5 mg/kg/injection, schedule: Q01DX009 (ip), vehicle: saline + alcohol, higher = larger tumour) was 80 % of control.
Regarding `CC1(C)COCN1COCCOCN1COCC1(C)C`, the T/C was 103 % of control (endpoint: median survival time, dose: 50.0 mg/kg/injection, schedule: Q04DX003 (ip), vehicle: saline, higher = longer survival) and 95 % of control (endpoint: median survival time, dose: 100.0 mg/kg/injection, schedule: Q04DX003 (ip), vehicle: saline, higher = longer survival).
As for `S=P(N1CC1)(N1CC1)N1CC1`, the T/C runs as follows: (endpoint: median survival time, dose: 3.4 mg/kg/injection, schedule: Q01DX007 (ip), vehicle: saline, higher = longer survival) 100 % of control; (endpoint: median survival time, dose: 3.4 mg/kg/injection, schedule: Q02DX007 (ip), vehicle: saline, higher = longer survival) 105 % of control; (endpoint: median survival time, dose: 4.0 mg/kg/injection, schedule: Q04DX003 (ip), vehicle: saline, higher = longer survival) 101 % of control; (endpoint: median survival time, dose: 5.0 mg/kg/injection, schedule: Q01DX007 (ip), vehicle: saline, higher = longer survival) 105 % of control; (endpoint: median survival time, dose: 5.0 mg/kg/injection, schedule: Q02DX007 (ip), vehicle: saline, higher = longer survival) 101 % of control; (endpoint: median survival time, dose: 6.0 mg/kg/injection, schedule: Q04DX003 (ip), vehicle: saline, higher = longer survival) 100 % of control. Besides, the T/C by setting is: (endpoint: median survival time, dose: 6.0 mg/kg/injection, schedule: Q07DX003 (ip), vehicle: saline, higher = longer survival) 99 % of control; (endpoint: median survival time, dose: 7.5 mg/kg/injection, schedule: Q01DX007 (ip), vehicle: saline, higher = longer survival) 106 % of control; (endpoint: median survival time, dose: 7.5 mg/kg/injection, schedule: Q02DX007 (ip), vehicle: saline, higher = longer survival) 117 % of control; (endpoint: median survival time, dose: 9.0 mg/kg/injection, schedule: Q04DX003 (ip), vehicle: saline, higher = longer survival) 107 % of control; (endpoint: median survival time, dose: 9.0 mg/kg/injection, schedule: Q07DX003 (ip), vehicle: saline, higher = longer survival) 108 % of control; (endpoint: median survival time, dose: 12.0 mg/kg/injection, schedule: Q07DX003 (ip), vehicle: saline, higher = longer survival) 111 % of control.
`O=[N+]([O-])c1nccn1CC(O)CO` (stereo not drawn): the T/C runs as follows: (endpoint: median survival time, dose: 1776.0 mg/kg/injection, schedule: Q01DX001 (ip), vehicle: saline, higher = longer survival) 101 % of control and 102 % of control; (endpoint: median survival time, dose: 2500.0 mg/kg/injection, schedule: Q01DX001 (ip), vehicle: saline, higher = longer survival) 102 % of control (2×) and 92 % of control.
Turning to `C[C@@]12C(=O)OC(=O)[C@]1(C)[C@H]1CC[C@@H]2O1`, the T/C was 94 % of control (endpoint: median survival time, dose: 0.1 mg/kg/injection, schedule: Q01DX009 (ip), vehicle: acetone, higher = longer survival); 106 % of control (endpoint: median survival time, dose: 0.2 mg/kg/injection, schedule: Q01DX009 (ip), vehicle: acetone, higher = longer survival); 101 % of control (endpoint: median survival time, dose: 0.4 mg/kg/injection, schedule: Q01DX009 (ip), vehicle: acetone, higher = longer survival); 89 % of control (endpoint: median survival time, dose: 0.8 mg/kg/injection, schedule: Q01DX009 (ip), vehicle: acetone, higher = longer survival); 117 % of control (endpoint: median tumor weight (est.), dose: 0.1 mg/kg/injection, schedule: Q01DX009 (ip), vehicle: acetone, higher = larger tumour); 64 % of control (endpoint: median tumor weight (est.), dose: 0.2 mg/kg/injection, schedule: Q01DX009 (ip), vehicle: acetone, higher = larger tumour). In addition, the T/C runs as follows: (endpoint: median tumor weight (est.), dose: 0.4 mg/kg/injection, schedule: Q01DX009 (ip), vehicle: acetone, higher = larger tumour) 109 % of control; (endpoint: median tumor weight (est.), dose: 0.8 mg/kg/injection, schedule: Q01DX009 (ip), vehicle: acetone, higher = larger tumour) 90 % of control.
Consider `COc1ccc(/C=C2\SC(=O)N(C)C2=O)cc1OC`, for which the T/C under setting [1] is 93 % of control; the T/C under setting [2] was 100 % of control; the T/C under setting [3] was 93 % of control; the T/C (endpoint: median tumor weight (est.), dose: 50.0 mg/kg/injection, schedule: Q01DX009 (ip), vehicle: saline with Tween-80, higher = larger tumour) was 104 % of control; the T/C (endpoint: median tumor weight (est.), dose: 100.0 mg/kg/injection, schedule: Q01DX009 (ip), vehicle: saline with Tween-80, higher = larger tumour) is 110 % of control; the T/C (endpoint: median tumor weight (est.), dose: 200.0 mg/kg/injection, schedule: Q01DX009 (ip), vehicle: saline with Tween-80, higher = larger tumour) was 77 % of control.

The values are drawn from PubChem BioAssay AID288 (DTP/NCI, 2004).
